Data set [1] is described as follows: Compound was tested for the toxic effect in mice after intraperitoneal injection. It is filed as ADME, organism-based. The settings on record: mouse, in vivo, ip.
Data set [2] in a line: In vitro inhibition of 3-deoxy-D-manno-2-octulosonate cytidylyltransferase (CMP-KDO) synthetase a key enzyme in the biosynthesis of the lipopolysaccharide (LPS) of Gram-negative bacteria.
A short description of data set [3]: In vitro inhibition of (3-deoxy-D-manno-2-octulosonate cytidylyltransferase) CMP-KDO synthetase a key enzyme in the biosynthesis of the lipopolysaccharide (LPS) of Gram-negative bacteria. On the set-up: species or system Escherichia coli.

This passage reports LD50 and Ki results from ChEMBL document CHEMBL1124615, “A novel prodrug of an impermeant inhibitor of 3-deoxy-D-manno-2-octulosonate cytidylyltransferase has antibacterial activity” (J Med Chem, 1989).

In general, LD50 refers to the dose expected to kill half of the subjects tested. One may read the Ki as the equilibrium dissociation constant of an inhibitor or competing ligand from its target.

Where only a bound is given, the exact number is not on record here.

In the case of `CSSc1cccc2cccc(COC(C)=O)c12`, the 50% lethal dose (LD50) in data set [1] is greater than 1000 mg/kg.
In data set [1], `c1cc2c3c(cccc3c1)SC2` showed a 50% lethal dose (LD50) of roughly 640 mg/kg.
Turning to `NC[C@@H](O)[C@H]1O[C@H](C(=O)O)C[C@@H](O)[C@H]1O`, the affinity in data set [2] corresponds to a Ki of 4 µM.
In the case of `O=C(O)[C@@H]1C[C@@H](O)[C@@H](O)[C@@H]([C@H](O)CO)O1`, the Ki in data set [3] was found to be 12 µM.
